# Source: ChEMBL document CHEMBL1201862, “PubChem BioAssay data set” (2004)
#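 Following 48 hours of exposure in 96-well plates, responses at five concentrations were used to interpolate endpoints linearly. Here, GI50 denotes the concentration required for 50% inhibition of growth.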 The source made the active and inactive calls. No stated cut-off is given here; in the data, active = GI50 up to about 1.1 µM and inactive = higher.
# How the values were obtained:
# Test in all cases: NCI tumour cell line growth inhibition, 48 h
# [1] = test system: 786-0
# [2] = test system: A498
# [3] = test system: A549
# [4] = test system: ACHN
# [5] = test system: CAKI-1
# [6] = test system: CCRF-CEM
# [7] = test system: COLO 205
# [8] = test system: DU-145
# [9] = test system: EKVX
# [10] = test system: HCC 2998
# [11] = test system: HCT-116
# [12] = test system: HCT-15
# [13] = test system: HL-60
# [14] = test system: HOP-62
# [15] = test system: HOP-92
# [16] = test system: HT-29
# [17] = test system: IGROV-1
# [18] = test system: K562
# [19] = test system: KM12
# [20] = test system: LOX IMVI
# [21] = test system: M14
# [22] = test system: MCF7
# [23] = test system: MDA-MB-231
# [24] = test system: MDA-MB-435
# [25] = test system: MDA-N
# [26] = test system: MOLT-4
# [27] = test system: Malme-3M
# [28] = test system: NCI-H226
# [29] = test system: NCI-H23
# [30] = test system: NCI-H460
# [31] = test system: NCI-H522
# [32] = test system: NCI/ADR-RES
# [33] = test system: OVCAR-3
# [34] = test system: OVCAR-4
# [35] = test system: OVCAR-5
# [36] = test system: PC-3
# [37] = test system: RXF 393
# [38] = test system: SF-268
# [39] = test system: SF-295
# [40] = test system: SF-539
# [41] = test system: SK-MEL-28
# [42] = test system: SK-MEL-2
# [43] = test system: SK-MEL-5
# [44] = test system: SK-OV-3
# [45] = test system: SN12C
# [46] = test system: SNB-19
# [47] = test system: SNB-75
# [48] = test system: SR
# [49] = test system: SW-620
# [50] = test system: T47D
# [51] = test system: U-251
# [52] = test system: UACC-257
# [53] = test system: UACC-62
# [54] = test system: UO-31
# [55] = test system: OVCAR-8
# [56] = test system: TK-10
# [57] = test system: Hs-578T
# [58] = test system: RPMI-8226
compound,measurement,setting,value
CCCCCCCCCCCCCCCC(=O)OCC(O)C1OC(=O)C(O)=C1O (stereo not given),GI50,[1],19.6 µM (inactive)
same,GI50,[2],35.7 µM (inactive)
same,GI50,[3],21.8 µM (inactive)
same,GI50,[4],34 µM (inactive)
same,GI50,[5],43.9 µM (inactive)
same,GI50,[6],23.7 µM (inactive)
same,GI50,[7],> 100 µM (inactive)
same,GI50,[8],> 100 µM (inactive)
same,GI50,[9],> 100 µM (inactive)
same,GI50,[10],> 100 µM (inactive)
same,GI50,[11],19.3 µM (inactive)
same,GI50,[12],32.5 µM
same,GI50,[13],29.5 µM (inactive)
same,GI50,[14],31.4 µM (inactive)
same,GI50,[15],< 0.01 µM (active)
same,GI50,[16],12.8 µM (inactive)
same,GI50,[17],37.6 µM (inactive)
same,GI50,[18],27.8 µM (inactive)
same,GI50,[19],23.4 µM (inactive)
same,GI50,[20],26.2 µM (inactive)
same,GI50,[21],18.8 µM (inactive)
same,GI50,[22],< 0.01 µM (active)
same,GI50,[23],28.8 µM (inactive)
same,GI50,[24],21 µM (inactive)
same,GI50,[25],30.8 µM (inactive)
same,GI50,[26],62.7 µM (inactive)
same,GI50,[27],> 100 µM (inactive)
same,GI50,[28],22.9 µM (inactive)
same,GI50,[29],3.21 µM (inactive)
same,GI50,[30],> 100 µM (inactive)
same,GI50,[31],34.4 µM (inactive)
same,GI50,[32],29.3 µM (inactive)
same,GI50,[33],> 100 µM (inactive)
same,GI50,[34],52.8 µM (inactive)
same,GI50,[35],33.9 µM (inactive)
same,GI50,[36],92 µM (inactive)
same,GI50,[37],36.7 µM (inactive)
same,GI50,[38],26.4 µM (inactive)
same,GI50,[39],20 µM (inactive)
same,GI50,[40],27.4 µM (inactive)
same,GI50,[41],20.4 µM (inactive)
same,GI50,[42],34.1 µM (inactive)
same,GI50,[43],> 100 µM (inactive)
same,GI50,[44],35.6 µM (inactive)
same,GI50,[45],29.9 µM (inactive)
same,GI50,[46],30.1 µM (inactive)
same,GI50,[47],16.1 µM (inactive)
same,GI50,[48],58.2 µM (inactive)
same,GI50,[49],37.9 µM (inactive)
same,GI50,[50],97.9 µM (inactive)
same,GI50,[51],28.1 µM (inactive)
same,GI50,[52],> 100 µM (inactive)
same,GI50,[53],27.5 µM (inactive)
same,GI50,[54],28.9 µM (inactive)
CC1(C)CC(=O)C2=C(C1)OC1=C(C(=O)CC(C)(C)C1)C2CC(c1ccccc1)c1ccc(O)c(O)c1O (stereo not given),GI50,[3],3.73 µM (inactive)
same,GI50,[4],> 10 µM (inactive)
same,GI50,[5],5.11 µM (inactive)
same,GI50,[8],> 10 µM (inactive)
same,GI50,[9],> 10 µM (inactive)
same,GI50,[11],8.81 µM (inactive)
same,GI50,[12],4.18 µM
same,GI50,[15],5.18 µM (inactive)
same,GI50,[16],3.04 µM (inactive)
same,GI50,[17],> 10 µM (inactive)
same,GI50,[19],3.41 µM (inactive)
same,GI50,[21],9.91 µM (inactive)
same,GI50,[23],8.91 µM (inactive)
same,GI50,[24],8.13 µM (inactive)
same,GI50,[25],> 10 µM (inactive)
same,GI50,[28],> 10 µM (inactive)
same,GI50,[29],5.9 µM (inactive)
same,GI50,[32],> 10 µM (inactive)
same,GI50,[33],3.54 µM (inactive)
same,GI50,[34],6.38 µM (inactive)
same,GI50,[35],> 10 µM (inactive)
same,GI50,[55],> 10 µM (inactive)
same,GI50,[36],2.87 µM (inactive)
same,GI50,[37],> 10 µM (inactive)
same,GI50,[38],> 10 µM (inactive)
same,GI50,[39],3.96 µM (inactive)
same,GI50,[40],> 10 µM (inactive)
same,GI50,[43],5.68 µM (inactive)
same,GI50,[45],> 10 µM (inactive)
same,GI50,[46],> 10 µM (inactive)
same,GI50,[47],3.05 µM (inactive)
same,GI50,[49],3.36 µM (inactive)
same,GI50,[56],> 10 µM (inactive)
same,GI50,[51],> 10 µM (inactive)
same,GI50,[54],> 10 µM (inactive)
CCN(CC)/[N+]([O-])=N/OS(=O)(=O)N(C)C,GI50,[1],> 100 µM (inactive)
same,GI50,[2],> 100 µM (inactive)
same,GI50,[3],> 100 µM (inactive)
same,GI50,[4],> 100 µM (inactive)
same,GI50,[5],> 100 µM (inactive)
same,GI50,[6],> 100 µM (inactive)
same,GI50,[7],> 100 µM (inactive)
same,GI50,[8],> 100 µM (inactive)
same,GI50,[9],> 100 µM (inactive)
same,GI50,[10],> 100 µM (inactive)
same,GI50,[11],> 100 µM (inactive)
same,GI50,[12],> 100 µM
same,GI50,[13],> 100 µM (inactive)
same,GI50,[14],> 100 µM (inactive)
same,GI50,[15],> 100 µM (inactive)
same,GI50,[16],> 100 µM (inactive)
same,GI50,[57],> 100 µM (inactive)
same,GI50,[17],> 100 µM (inactive)
same,GI50,[18],> 100 µM (inactive)
same,GI50,[19],> 100 µM (inactive)
same,GI50,[20],> 100 µM (inactive)
same,GI50,[21],> 100 µM (inactive)
same,GI50,[22],> 100 µM (inactive)
same,GI50,[23],> 100 µM (inactive)
same,GI50,[24],> 100 µM (inactive)
same,GI50,[25],> 100 µM (inactive)
same,GI50,[26],> 100 µM (inactive)
same,GI50,[27],> 100 µM (inactive)
same,GI50,[28],> 100 µM (inactive)
same,GI50,[29],> 100 µM (inactive)
same,GI50,[30],> 100 µM (inactive)
same,GI50,[31],> 100 µM (inactive)
same,GI50,[32],> 100 µM (inactive)
same,GI50,[33],> 100 µM (inactive)
same,GI50,[34],> 100 µM (inactive)
same,GI50,[35],> 100 µM (inactive)
same,GI50,[55],> 100 µM (inactive)
same,GI50,[58],> 100 µM (inactive)
same,GI50,[37],> 100 µM (inactive)
same,GI50,[38],> 100 µM (inactive)
same,GI50,[39],> 100 µM (inactive)
same,GI50,[40],> 100 µM (inactive)
same,GI50,[41],> 100 µM (inactive)
same,GI50,[43],> 100 µM (inactive)
same,GI50,[44],> 100 µM (inactive)
same,GI50,[45],> 100 µM (inactive)
same,GI50,[46],> 100 µM (inactive)
same,GI50,[47],> 100 µM (inactive)
same,GI50,[48],> 100 µM (inactive)
same,GI50,[49],> 100 µM (inactive)
same,GI50,[50],> 100 µM (inactive)
same,GI50,[56],> 100 µM (inactive)
same,GI50,[51],> 100 µM (inactive)
same,GI50,[52],> 100 µM (inactive)
same,GI50,[53],> 100 µM (inactive)
Oc1cnc2c(O)cccc2c1 [JINEOL],GI50,[1],35.5 µM (inactive)
same,GI50,[2],> 100 µM (inactive)
same,GI50,[3],40.7 µM (inactive)
same,GI50,[4],27.5 µM (inactive)
same,GI50,[8],57.3 µM (inactive)
same,GI50,[9],15.9 µM (inactive)
same,GI50,[10],43.4 µM (inactive)
same,GI50,[11],40.8 µM (inactive)
same,GI50,[12],33.5 µM
same,GI50,[13],31.5 µM (inactive)
same,GI50,[14],26.7 µM (inactive)
same,GI50,[15],41 µM (inactive)
same,GI50,[16],32.7 µM (inactive)
same,GI50,[57],> 100 µM (inactive)
same,GI50,[17],20.3 µM (inactive)
same,GI50,[18],51.3 µM (inactive)
same,GI50,[19],12.8 µM (inactive)
same,GI50,[20],26.2 µM (inactive)
same,GI50,[21],24.5 µM (inactive)
same,GI50,[22],30.7 µM (inactive)
same,GI50,[23],52 µM (inactive)
same,GI50,[24],80.2 µM (inactive)
same,GI50,[25],57.1 µM (inactive)
same,GI50,[26],41.7 µM (inactive)
same,GI50,[27],34.8 µM (inactive)
same,GI50,[28],24.2 µM (inactive)
same,GI50,[30],31.9 µM (inactive)
same,GI50,[31],19.2 µM (inactive)
same,GI50,[32],18.2 µM (inactive)
same,GI50,[33],20.6 µM (inactive)
same,GI50,[35],24.9 µM (inactive)
same,GI50,[55],26.2 µM (inactive)
same,GI50,[36],36.8 µM (inactive)
same,GI50,[58],38.1 µM (inactive)
same,GI50,[38],33.2 µM (inactive)
same,GI50,[39],36.8 µM (inactive)
same,GI50,[40],30.3 µM (inactive)
same,GI50,[41],76.6 µM (inactive)
same,GI50,[42],64.4 µM (inactive)
same,GI50,[44],32.6 µM (inactive)
same,GI50,[45],37.5 µM (inactive)
same,GI50,[46],58.9 µM (inactive)
same,GI50,[47],20.7 µM (inactive)
same,GI50,[48],40.6 µM (inactive)
same,GI50,[49],45.5 µM (inactive)
same,GI50,[50],29 µM (inactive)
same,GI50,[56],53.1 µM (inactive)
same,GI50,[51],48.9 µM (inactive)
same,GI50,[52],56.6 µM (inactive)
same,GI50,[53],32.7 µM (inactive)
same,GI50,[54],30.8 µM (inactive)
